Results taken from ChEMBL document CHEMBL4229379, “Synthesis and structure-activity relationship of novel bisindole amidines active against MDR Gram-positive and Gram-negative bacteria” (Eur J Med Chem, 2018).
Converted amounts (≈) assume the structure as drawn.

Legend:
[1] = system: Escherichia coli; test: Antibacterial activity against extended-spectrum beta-lactamase deficient Escherichia coli 1515 after 18 hrs by CLSI broth microdilution method; assay type: functional; conditions: Escherichia coli, 1515, 18 h
[2] = system: Staphylococcus aureus; test: Antibacterial activity against methicillin-resistant Staphylococcus aureus ATCC 33591 after 18 hrs by CLSI broth microdilution method; assay type: functional; conditions: ATCC 33591, 18 h
[3] = system: Stenotrophomonas maltophilia; test: Antibacterial activity against Stenotrophomonas maltophilia ATCC 13636 after 18 hrs by CLSI broth microdilution method; assay type: functional; conditions: ATCC 13636, 18 h
[4] = system: Klebsiella aerogenes; test: Antibacterial activity against Enterobacter aerogenes ATCC 13048 after 18 hrs by CLSI broth microdilution method; assay type: functional; conditions: ATCC 13048, 18 h
[5] = system: Pseudomonas aeruginosa; test: Antibacterial activity against Pseudomonas aeruginosa ATCC 27853 after 18 hrs by CLSI broth microdilution method; assay type: functional; conditions: ATCC 27853, 18 h
[6] = system: Klebsiella pneumoniae; test: Antibacterial activity against new delhi metallo-beta-lactamase-1 harboring Klebsiella pneumoniae ATCC BAA-2146 after 18 hrs by CLSI broth microdilution method; assay type: functional; conditions: ATCC BAA-2146, 18 h
[7] = system: Serratia marcescens; test: Antibacterial activity against Serratia marcescens ATCC 21074 after 18 hrs by CLSI broth microdilution method; assay type: functional; conditions: ATCC 21074, 18 h
[8] = system: Providencia rettgeri; test: Antibacterial activity against Providencia rettgeri ATCC 31052 after 18 hrs by CLSI broth microdilution method; assay type: functional; conditions: ATCC 31052, 18 h
[9] = system: Enterococcus faecalis; test: Antibacterial activity against vancomycin-sensitive Enterococcus faecalis ATCC 29212 after 18 hrs by CLSI broth microdilution method; assay type: functional; conditions: ATCC 29212, 18 h
[10] = system: Citrobacter freundii; test: Antibacterial activity against Citrobacter freundii ATCC 43864 after 18 hrs by CLSI broth microdilution method; assay type: functional; conditions: ATCC 43864, 18 h
[11] = system: Pseudomonas aeruginosa; test: Antibacterial activity against Pseudomonas aeruginosa 12-16 after 18 hrs by CLSI broth microdilution method; assay type: functional; conditions: 12-16, 18 h
[12] = system: Staphylococcus epidermidis; test: Antibacterial activity against methicillin-sensitive Staphylococcus epidermidis 12-6 after 18 hrs by CLSI broth microdilution method; assay type: functional; conditions: 12-6, 18 h
[13] = system: Proteus mirabilis; test: Antibacterial activity against Proteus mirabilis 12-6 after 18 hrs by CLSI broth microdilution method; assay type: functional; conditions: 12-6, 18 h
[14] = system: Enterobacter cloacae; test: Antibacterial activity against Enterobacter cloacae ATCC 43560 after 18 hrs by CLSI broth microdilution method; assay type: functional; conditions: ATCC 43560, 18 h
[15] = system: Enterococcus faecium; test: Antibacterial activity against vancomycin-resistant Enterococcus faecium ATCC 700221 after 18 hrs by CLSI broth microdilution method; assay type: functional; conditions: ATCC 700221, 18 h
[16] = system: Enterococcus faecium; test: Antibacterial activity against vancomycin-sensitive Enterococcus faecium 12-3 after 18 hrs by CLSI broth microdilution method; assay type: functional; conditions: 12-3, 18 h
[17] = system: Staphylococcus aureus; test: Antibacterial activity against methicillin-sensitive Staphylococcus aureus 15 after 18 hrs by CLSI broth microdilution method; assay type: functional; conditions: Staphylococcus aureus, 15, 18 h
[18] = system: Escherichia coli; test: Antibacterial activity against extended-spectrum beta-lactamase harboring Escherichia coli 12-15 after 18 hrs by CLSI broth microdilution method; assay type: functional; conditions: 12-15, 18 h
[19] = system: Enterococcus faecalis; test: Antibacterial activity against vancomycin-resistant Enterococcus faecalis ATCC 51299 after 18 hrs by CLSI broth microdilution method; assay type: functional; conditions: ATCC 51299, 18 h
[20] = system: Staphylococcus aureus; test: Antibacterial activity against methicillin-resistant Staphylococcus aureus 12-33 after 18 hrs by CLSI broth microdilution method; assay type: functional; conditions: 12-33, 18 h
[21] = system: Klebsiella pneumoniae; test: Antibacterial activity against extended-spectrum beta-lactamase deficient Klebsiella pneumoniae 7 after 18 hrs by CLSI broth microdilution method; assay type: functional; conditions: Klebsiella pneumoniae, 7, 18 h
[22] = system: Enterococcus faecium; test: Antibacterial activity against vancomycin-resistant Enterococcus faecium 12-1 after 18 hrs by CLSI broth microdilution method; assay type: functional; conditions: 12-1, 18 h
[23] = system: Enterococcus faecalis; test: Antibacterial activity against vancomycin-sensitive Enterococcus faecalis 12-5 after 18 hrs by CLSI broth microdilution method; assay type: functional; conditions: 12-5, 18 h
[24] = system: Staphylococcus epidermidis; test: Antibacterial activity against methicillin-resistant Staphylococcus epidermidis 12-8 after 18 hrs by CLSI broth microdilution method; assay type: functional; conditions: 12-8, 18 h
[25] = system: Staphylococcus aureus; test: Antibacterial activity against methicillin-sensitive Staphylococcus aureus 12-28 after 18 hrs by CLSI broth microdilution method; assay type: functional; conditions: 12-28, 18 h
[26] = system: Pseudomonas aeruginosa; test: Antibacterial activity against Pseudomonas aeruginosa PAO1 after 18 hrs by CLSI broth microdilution method; assay type: functional; conditions: PAO1, 18 h
[27] = Cytotoxicity against HEK293T cells assessed as reduction in cell viability after 48 hrs by MTS assay; assay type: cell-based, HEK-293T; conditions: human
[28] = system: Klebsiella pneumoniae; test: Antibacterial activity against extended-spectrum beta-lactamase deficient Klebsiella pneumoniae 12-4 after 18 hrs by CLSI broth microdilution method; assay type: functional; conditions: 12-4, 18 h
[29] = system: Escherichia coli; test: Antibacterial activity against extended-spectrum beta-lactamase deficient Escherichia coli ATCC 25922 after 18 hrs by CLSI broth microdilution method; assay type: functional; conditions: ATCC 25922, 18 h
[30] = system: Klebsiella pneumoniae; test: Antibacterial activity against extended-spectrum beta-lactamase harboring Klebsiella pneumoniae ATCC 700603 after 18 hrs by CLSI broth microdilution method; assay type: functional; conditions: Klebsiella pneumoniae, 700603, 18 h
[31] = system: Escherichia coli; test: Antibacterial activity against extended-spectrum beta-lactamase deficient Escherichia coli 12-14 after 18 hrs by CLSI broth microdilution method; assay type: functional; conditions: 12-14, 18 h
[32] = system: Acinetobacter calcoaceticus; test: Antibacterial activity against Acinetobacter calcoaceticus ATCC 19606 after 18 hrs by CLSI broth microdilution method; assay type: functional; conditions: ATCC 19606, 18 h
[33] = system: Proteus vulgaris; test: Antibacterial activity against Proteus vulgaris ATCC 29905 after 18 hrs by CLSI broth microdilution method; assay type: functional; conditions: ATCC 29905, 18 h
[34] = system: Enterococcus faecalis; test: Antibacterial activity against vancomycin-resistant Enterococcus faecalis 09-9 after 18 hrs by CLSI broth microdilution method; assay type: functional; conditions: 09-9, 18 h
[35] = system: Staphylococcus epidermidis; test: Antibacterial activity against methicillin-sensitive Staphylococcus epidermidis ATCC 12228 after 18 hrs by CLSI broth microdilution method; assay type: functional; conditions: ATCC 12228, 18 h
[36] = system: Klebsiella pneumoniae; test: Antibacterial activity against extended-spectrum beta-lactamase harboring Klebsiella pneumoniae 12-8 after 18 hrs by CLSI broth microdilution method; assay type: functional; conditions: 12-8, 18 h
[37] = system: Staphylococcus aureus; test: Antibacterial activity against methicillin-sensitive Staphylococcus aureus ATCC 29213 after 18 hrs by CLSI broth microdilution method; assay type: functional; conditions: ATCC 29213, 18 h

SMILES	MIC [1] [µg/mL]	MIC [2] [µg/mL]	MIC [3] [µg/mL]	MIC [4] [µg/mL]	MIC [5] [µg/mL]	MIC [6] [µg/mL]	MIC [7] [µg/mL]	MIC [8] [µg/mL]	MIC [9] [µg/mL]	MIC [10] [µg/mL]	MIC [11] [µg/mL]	MIC [12] [µg/mL]	MIC [13] [µg/mL]	MIC [14] [µg/mL]	MIC [15] [µg/mL]	MIC [16] [µg/mL]	MIC [17] [µg/mL]	MIC [18] [µg/mL]	MIC [19] [µg/mL]	MIC [20] [µg/mL]	other results
N=C(c1ccc2cc(-c3ccc(-c4cc5ccc(C(=N)N6CCOCC6)cc5[nH]4)cc3)[nH]c2c1)N1CCOCC1	4 (≈ 7.51 µM)	0.5 (≈ 0.939 µM)	> 128	8 (≈ 15 µM)	> 128	8 (≈ 15 µM)	> 128	8 (≈ 15 µM)	4 (≈ 7.51 µM)	4 (≈ 7.51 µM)	> 128	0.5 (≈ 0.939 µM)	32 (≈ 60.1 µM)	4 (≈ 7.51 µM)	4 (≈ 7.51 µM)	4 (≈ 7.51 µM)	0.5 (≈ 0.939 µM)	4 (≈ 7.51 µM)	4 (≈ 7.51 µM)	0.5 (≈ 0.939 µM)	MIC [21]: 8 µg/mL (≈ 15 µM); MIC [22]: 2 µg/mL (≈ 3.75 µM); MIC [23]: 8 µg/mL (≈ 15 µM); MIC [24]: 0.5 µg/mL (≈ 0.939 µM); MIC [25]: 0.5 µg/mL (≈ 0.939 µM); MIC [26]: > 128 µg/mL; CC50 at 48 h [27]: 16.4 µg/mL (≈ 30.9 µM); MIC [28]: 16 µg/mL (≈ 30 µM); MIC [29]: 4 µg/mL (≈ 7.51 µM); MIC [30]: 16 µg/mL (≈ 30 µM); MIC [31]: 4 µg/mL (≈ 7.51 µM); MIC [32]: 32 µg/mL (≈ 60.1 µM); MIC [33]: 8 µg/mL (≈ 15 µM); MIC [34]: 4 µg/mL (≈ 7.51 µM); MIC [35]: 0.5 µg/mL (≈ 0.939 µM); MIC [36]: 8 µg/mL (≈ 15 µM); MIC [37]: 1 µg/mL (≈ 1.88 µM)
CN(C)C(=N)c1ccc2cc(-c3cnc(-c4cc5ccc(C(=N)N(C)C)cc5[nH]4)s3)[nH]c2c1	2 (≈ 4.39 µM)	0.25 (≈ 0.549 µM)	16 (≈ 35.1 µM)	4 (≈ 8.78 µM)	16 (≈ 35.1 µM)	4 (≈ 8.78 µM)	8 (≈ 17.6 µM)	2 (≈ 4.39 µM)	1 (≈ 2.19 µM)	4 (≈ 8.78 µM)	> 64	0.125 (≈ 0.274 µM)	8 (≈ 17.6 µM)	2 (≈ 4.39 µM)	1 (≈ 2.19 µM)	2 (≈ 4.39 µM)	0.25 (≈ 0.549 µM)	2 (≈ 4.39 µM)	1 (≈ 2.19 µM)	1 (≈ 2.19 µM)	MIC [21]: 4 µg/mL (≈ 8.78 µM); MIC [22]: 1 µg/mL (≈ 2.19 µM); MIC [23]: 2 µg/mL (≈ 4.39 µM); MIC [24]: 0.25 µg/mL (≈ 0.549 µM); MIC [25]: 0.5 µg/mL (≈ 1.1 µM); MIC [26]: > 64 µg/mL; CC50 at 48 h [27]: 2.01 µg/mL (≈ 4.41 µM); MIC [28]: 4 µg/mL (≈ 8.78 µM); MIC [29]: 2 µg/mL (≈ 4.39 µM); MIC [30]: 8 µg/mL (≈ 17.6 µM); MIC [31]: 2 µg/mL (≈ 4.39 µM); MIC [32]: 16 µg/mL (≈ 35.1 µM); MIC [33]: 4 µg/mL (≈ 8.78 µM); MIC [34]: 0.5 µg/mL (≈ 1.1 µM); MIC [35]: 0.12 µg/mL (≈ 0.263 µM); MIC [36]: 4 µg/mL (≈ 8.78 µM); MIC [37]: 0.25 µg/mL (≈ 0.549 µM)
COCCNC(=N)c1ccc2cc(-c3ccc(-c4cc5ccc(C(=N)NCCOC)cc5[nH]4)cc3)[nH]c2c1	8 (≈ 15.7 µM)	0.25 (≈ 0.492 µM)	16 (≈ 31.5 µM)	8 (≈ 15.7 µM)	16 (≈ 31.5 µM)	8 (≈ 15.7 µM)	16 (≈ 31.5 µM)	8 (≈ 15.7 µM)	0.5 (≈ 0.983 µM)	2 (≈ 3.93 µM)	32 (≈ 62.9 µM)	0.125 (≈ 0.246 µM)	32 (≈ 62.9 µM)	2 (≈ 3.93 µM)	0.5 (≈ 0.983 µM)	0.5 (≈ 0.983 µM)	0.25 (≈ 0.492 µM)	4 (≈ 7.86 µM)	0.5 (≈ 0.983 µM)	0.25 (≈ 0.492 µM)	MIC [21]: 8 µg/mL (≈ 15.7 µM); MIC [22]: 0.5 µg/mL (≈ 0.983 µM); MIC [23]: 2 µg/mL (≈ 3.93 µM); MIC [24]: 0.125 µg/mL (≈ 0.246 µM); MIC [25]: 0.25 µg/mL (≈ 0.492 µM); MIC [26]: 32 µg/mL (≈ 62.9 µM); CC50 at 48 h [27]: 3.95 µg/mL (≈ 7.77 µM); MIC [28]: 8 µg/mL (≈ 15.7 µM); MIC [29]: 2 µg/mL (≈ 3.93 µM); MIC [30]: 16 µg/mL (≈ 31.5 µM); MIC [31]: 2 µg/mL (≈ 3.93 µM); MIC [32]: 32 µg/mL (≈ 62.9 µM); MIC [33]: 16 µg/mL (≈ 31.5 µM); MIC [34]: 1 µg/mL (≈ 1.97 µM); MIC [35]: 0.125 µg/mL (≈ 0.246 µM); MIC [36]: 8 µg/mL (≈ 15.7 µM); MIC [37]: 0.25 µg/mL (≈ 0.492 µM)
